Results published in publication PMC12391994, “Synthesis of a fac-Tricarbonylrhenium(I) Complex with Pyrithione, Its Physicochemical Characterization, and Assessment of Biological Effects” (ACS Omega, 2025).

Experiments:
cathepsin V = target: T1, cathepsin V (Homo sapiens, UniProt O60911); assay: Relative inhibition of cathepsin V; format: biochemical; conditions: 50 μM; substrate Z-Phe-Arg-AMC; pH 5.5
T1 construct: made in house; host or cells: Pichia pastoris
Text: Relative inhibition is expressed as a percentage of the decrease in reaction velocity in the presence of an inhibitor, in comparison to the reaction velocity in the absence of an inhibitor. For that purpose, the specific fluorogenic substrates Z-Arg-Arg-7-amido-4-methylcoumarin (Z-Arg-Arg-AMC) and 2-aminobenzoyl (Abz)-Gly-Ile-Val-Arg-Ala-Lys-(Dnp)-OH were used for cathepsin B endopeptidase and exopeptidase activities, respectively, and Z-Phe-Arg-AMC was used for cathepsin L and V activities.
Human recombinant cathepsin B was expressed in E. coli, recombinant cathepsin V was expressed in Pichia pastoris, and human recombinant cathepsin L was expressed in E. coli, as reported. − For the determination of cathepsin B endopeptidase and exopeptidase activities, 100 mM phosphate buffer (pH 6.0) and 60 mM acetate buffer (pH 5.0) were used, respectively, and for the determination of cathepsin V and L activities, 100 mM acetate buffer (pH 5.5) was used. All buffers contained 0.1% PEG 8000 (Sigma-Aldrich, St. Louis, MO), 5 mM cysteine, and 1.5 mM EDTA. Prior to the assay, the enzymes were activated in the assay buffer for 5 min at 37 °C.
To determine the effect of inhibitors on enzyme activity, the following substrates were used: Z-Arg-Arg-AMC (final concentration 5 μM, Z-RR-AMC; Bachem, Bubendorf, Switzerland) for cathepsin B endopeptidase activity, Abz-Gly-Ile-Val-Arg-Ala-Lys-(Dnp)-OH (final concentration 1 μM, Abz-GIVRAK-(Dnp)-OH; Bachem) for cathepsin B exopeptidase activity, and Z-Phe-Arg-AMC (final concentration 2 μM, Z-FR-AMC; Bachem) for cathepsin V and L activity. The substrate ([…]) at a final concentration and inhibitor ([…]) at a concentration of 50 μM were added to the wells of a black microplate. The reaction was then initiated by adding 90 μL of activated enzyme (final concentrations: 5 nM cathepsin B for its endopeptidase activity, 0.5 nM cathepsin B for its exopeptidase activity, 2.5 ng/mL for cathepsin V, and 0.02 nM for cathepsin L) in the assay buffer. The formation of fluorescent degradation products during the reaction was continuously monitored at 460 ± 10 nm with excitation at 380 ± 20 nm for Z-Arg-Arg-AMC and Z-Phe-Arg-AMC and at 420 ± 10 nm with excitation at 320 ± 20 nm for Abz-Gly-Ile-Val-Arg-Ala-Lys(Dnp)-OH at 37 °C on a Tecan Infinite M1000 (Mannedorf, Switzerland) spectrofluorometer. All assay mixtures contained 5% (v/v) DMSO. To prevent false-positive inhibition due to the formation of compound aggregates, 0.01% Triton X-100 was used. All measurements were performed in triplicate and repeated twice. The relative inhibition was calculated using the following equation: relative inhibition (%) = 100(1 – v i/v o), where v i and v o designate the reaction velocities in the presence and absence of inhibitor, respectively.

HeLa cells = assay: MTT cytotoxicity assay, HeLa; format: cell-based, human; conditions: 72 h incubation
Description: (§1) Its cytotoxicity was determined in the human HeLa cervical cancer cell line, the drug-sensitive Colo205 and its resistant counterpart, the ABCB1 expressing Colo320 colon adenocarcinoma cancer cell lines, using the colorimetric 3-(4,5-dimethylthiazol-2-yl)-2,5-diphenyltetrazolium bromide (MTT) test. To investigate the selectivity toward cancer cells, the noncancerous fibroblast CCD-19Lu cell line was included.
(§2) The tested compound was dissolved in DMSO to prepare a 5 mM stock solution, which was diluted in complete culture medium, to study the effect of compounds on cell growth of human colonic adenocarcinoma cell lines. Doxorubicin was used as the positive control. The cells were treated with a trypsin-versene (EDTA) solution. Cells were adjusted to a density of 1 × 10^4 cells in 100 μL of the appropriate culture medium and were added to each well, with the exception of the medium control wells. Except for the semiadherent Colo205 and Colo320 cell lines, the other adherent cell lines were seeded 24 h prior to the assay. Then, stock solutions were diluted in the appropriate culture medium, and 2-fold serial dilutions of compounds were prepared in 100 μL of the medium, horizontally. […] Cell growth was determined by measuring the optical density (OD) at 540/630 nm with a Multiscan EX ELISA reader (Thermo Labsystems, Cheshire, WA). […]

[1] = Stability of complex 4 in DMSO followed by 1H NMR; format: physicochemical
Description: A Bruker Avance III HD Ascend 500 Plus instrument (Billerica, MA) was used for solution NMR studies. Spectra were recorded with a WATERGATE water suppression pulse scheme in the presence of 10% (v/v) D2O in most cases. DSS internal standard was added to samples to obtain reference peaks.

MCF-10A neoT cells = assay: MTS cell viability assay; conditions: 24 h, concentrations used to monitor ECM degradation
Description: The cells were seeded at 6 × 10^4 cells/well into a 96-well microplate and incubated overnight for attachment. The cells were then treated with the inhibitor (at 1, 2.5, or 5 μM) or DMSO (0.1%) in 100 μL for 24 h. After incubation, 10 μL of the reagent MTS was added to the wells, and the absorbance of formazan was measured at 492 nm on a Tecan Infinite M1000 instrument (Mannedorf, Switzerland). Cell viability (%) was expressed as the ratio between absorbance in the presence of the compounds and that in the presence of DMSO. All assays were performed in quadruplicate and repeated twice.

Behavior in blood serum = format: physicochemical, human; conditions: concentration of 40 μM
Colo205 cells = assay: MTT cytotoxicity assay, Colo205; format: cell-based, human; conditions: 72 h incubation, MTT; read-out: IC50 Colo205
Description: as §1
Drug-sensitive Colo205 (ATCC-CCL-222) and ABCB1 (MDR1)-LRP expressing and doxorubicin-resistant Colo320/MDR-LRP (ATCC-CCL-220.1) human colonic adenocarcinoma cell lines were purchased from LGC Promochem (Teddington, U.K.). The cells were cultured in RPMI 1640 medium supplemented with 10% heat-inactivated fetal bovine serum, 2 mM L-glutamine, 1 mM Na-pyruvate, and 10 mM HEPES.
as §2, with “horizontally. The final volume of the wells containing compounds and cells was 200 μL. The plates were incubated at 37 °C for 72 h; at the end of the incubation period, 20 μL of MTT solution (from a stock solution of 5 mg/mL) was added to each well.” for “horizontally.”

T1 sequence (O60911 114-334): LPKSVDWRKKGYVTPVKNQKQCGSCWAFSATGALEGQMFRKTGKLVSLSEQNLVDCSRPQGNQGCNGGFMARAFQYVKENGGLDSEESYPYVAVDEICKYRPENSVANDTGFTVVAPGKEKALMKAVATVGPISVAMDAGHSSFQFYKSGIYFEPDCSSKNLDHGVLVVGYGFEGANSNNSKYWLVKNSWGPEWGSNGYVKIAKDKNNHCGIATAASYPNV

## N#Cc1ccccc1.[C-]#[O+].[C-]#[O+].[C-]#[O+].[O-]n1ccccc1=S.[Re+] [complex 4, fac-[Re(CO)3(pth)(benzonitrile)]]
Vero cells
  maximum nontoxic concentration: 6.25 µM
Cathepsin V
  relative inhibition cathepsin V: 9.1 ± 1.0%
HeLa cells
  IC50: 7.96 ± 0.98 µM
[1]; 48 h monitoring period, light-exclusion
  bidentate pyrithione ligand coordination to rhenium(I): remained coordinated
[1]; light-exclusion conditions, 1H NMR
  time for complete replacement of benzonitrile with a solvent molecule: ≤ 1 h
MCF-10A neoT cells
  effect on viability of MCF-10A neoT cells: did not impair the viability
Behavior in blood serum
  behavior in blood serum: precipitation
Colo205 cells
  IC50: 9.22 ± 0.53 µM
